From patent US20100105722A1, “Substituted 4,5,6,7-tetrahydrothienopyridines as KCNQ2/3 Modulators” (GRUENENTHAL GmbH, priority 2008, published 2010)

Tests used:
[1] = tested on: formalin-induced nociceptive behavior; assay: Formalin test in the rat (phase II, chronic pain component); format: in vivo; conditions: for Formalin test rat i.v. @ 10 mg/kg % reduction in noiceptive behavior: comparison experiments table; for Formalin test rat i.v. % reduction in nociceptive behavior: phase II, Table 3
Procedure: Formalin Test in the Rat The formalin test (Dubuisson, D. and Dennis, S. G., 1977, Pain, 4, 161-174) represents a model for both acute and chronic pain. In the studies presented here, the chronic pain component (phase II of the formalin test; time period 21-27 min after formalin administration) was evaluated. A biphase nociceptive reaction is induced in freely mobile test animals by a single formalin injection into the dorsal side of a rear paw, the reaction being detected by observation of three clearly distinguishable behavior patterns. Formalin is administered subcutaneously into the dorsal side of the right rear paw of each animal in a volume of 50 μl and a concentration of 5%. The vehicle and the test substances are administered intravenously 5 min, or orally 30 min, before the formalin injection. The specific changes in behavior, such as lifting and shaking of the paw, weight displacement of the animal and biting and licking reactions, are observed and recorded continuously up to 60 min after the formalin administration. […] Rats of the strain Sprague Dawley (Janvier, Belgium) are used as the animal strain. The weight of the animals is 180-200 g; the size of the group was n=10.

hKCNQ2/3 [2] = biological target: T1, hKCNQ2/3 (Homo sapiens, UniProt O43525+O43526); assay: Fluorescence assay using a voltage sensitive dye (fluorimetry); format: cell-based; conditions: for Emax at 10 µM: relative to retigabine = 100%
T1 construct: expressed in transfected cells; host or cells: CHO-K1
Procedure: Fluorescence Assay using a Voltage Sensitive Dye
Human CHO-K1 cells expressing KCNQ2/3 channels are cultivated adherently at 37° C., 5% CO2 and 95% humidity in cell culture bottles (e.g. 80 cm^2 TC flasks, Nunc) with DMEM-high glucose (Sigma Aldrich, D7777) including 10% FCS (PAN Biotech, e.g. 3302-P270521) or alternatively MEM Alpha Medium (1×, liquid, Invitrogen, #22571), 10% fetal calf serum (FCS) (Invitrogen, #10270-106, heat-inactivated) and the necessary selection antibiotics.
Before being sown out for the measurements, the cells are washed with a 1×DPBS buffer without Ca^2+/Mg^2+ (e.g. Invitrogen, #14190-094) and detached from the bottom of the culture vessel by means of Accutase (PAA Laboratories, #L11-007) (incubation with Accutase for 15 min at 37° C.). The cell count then present is determined using a CASY™ cell counter (TCC model, Schärfe System) in order subsequently to apply, depending on the density optimization for the individual cell line, 20,000-30,000 cells/well/100 μl of the described nutrient medium to 96-well measuring plates of the Corning™ CellBIND™ type (Flat Clear Bottom Black Polystyrene Microplates, #3340). Incubation is then carried out for one hour at room temperature, without gassing or adjusting the humidity, followed by incubation for 24 hours at 37° C., 5% CO2 and 95% humidity.
The voltage-sensitive fluorescent dye from the Membrane Potential Assay Kit (Red™ Bulk format part R8123 for FLIPR, MDS Analytical Technologies™) is prepared by dissolving the contents of a vessel Membrane Potential Assay Kit Red Component A in 200 ml of extracellular buffer (ES buffer, 120 mM NaCl, 1 mM KCl, 10 mM HEPES, 2 mM CaCl2, 2 mM MgCl2, 10 mM glucose; pH 7.4). After removal of the nutrient medium, the cells are washed with 200 μl of ES buffer, then covered with a layer of 100 μl of the dye solution prepared above and incubated for 45 min at room temperature with the exclusion of light.
The fluorescence measurements are carried out with a BMG Labtech FLUOstar™, BMG Labtech NOVOstar™ or BMG Labtech POLARstar™ instrument (525 nm excitation, 560 nm emission, Bottom Read mode). After incubation of the dye, 50 μl of the test substances in the desired concentrations, or 50 μl of ES buffer for control purposes, are introduced into separate cavities of the measuring plate and incubated for 30 min at room temperature while being shielded from light. The fluorescence intensity of the dye is then measured for 5 min and the fluorescence value F1 of each well is thus determined at a given, constant time. 15 μl of a […] KCl solution ([…]) are then added to each well. The change in fluorescence is subsequently measured until all the relevant measured values have been obtained (mainly 5-30 min). At a given time after KCl application, a fluorescence value F2 is determined, in this case at the time of the fluorescence peak.
For calculation, the fluorescence intensity F2 is compared with the fluorescence intensity F1, and the agonistic activity of the target compound on the potassium channel is determined therefrom. F2 and F1 are calculated as follows: […]
In order to determine whether a substance has agonistic activity, […]
for example, can be compared with […]
is determined by adding to the reaction batch only the buffer solution instead of the test substance, determining the value F1K of the fluorescence intensity, adding the potassium ions as described above, and measuring a value F2K of the fluorescence intensity. F2K and F1K are then calculated as follows: […]
A substance has an agonistic activity on the potassium channel when […]
Independently of the comparison of […]
it is possible to conclude that a target compound has agonistic activity if an increase in […]
is to be observed as the dosage of the target compound increases.
Calculations of EC50 and IC50 values are carried out with the aid of ‘Prism v4.0’ software (GraphPad Software™).

hKCNQ2/3 [3] = biological target: T1, hKCNQ2/3; assay: Voltage clamp (patch-clamp) measurements on stably transfected hKCNQ2/3 CHO-K1 cell line; format: cell-based; conditions: at -40 mV, relative to retigabine (10 μM) = 100%, read-out: patch-clamp % Efficacy @ 10 μM (retigabine = 100%)
Procedure: Voltage Clamp Measurements
In order to confirm a KCNQ2/3-agonistic action of the substances electro-physiologically, patch-clamp measurements (Hamill O P, Marty A, Neher E, Sakmann B, Sigworth F J.: Improved patch-clamp techniques for high-resolution current recording from cells and cell-free membrane patches, Pflugers Arch. 1981 August; 391(2):85-100) were carried out in voltage clamp mode on a stably transfected hKCNQ2/3 CHO-K1 cell line. After formation of the gigaseal, the cells were first clamped at a holding potential of −60 mV. Thereafter, depolarizing voltage jumps were applied up to a potential of +20 mV (increment: 20 mV, duration: 1 second) in order to confirm the functional expression of KCNQ2/3-typical currents. The testing of the substances was carried out at a potential of −40 mV. The increase in current induced by retigabine (10 μM) at −40 mV was first recorded as a positive control on each cell. After complete washing out of the retigabine effect (duration: 80 s), the test substance (10 μM) was applied. The increase in current induced by the test substance was standardized to the retigabine effect and indicated as the relative efficacy (see below).

[4] = 10 μM, comparison experiments table, read-out: Fluorimetry % Efficacy @ 10 μM (retigabine = 100%)
[5] = CHO-K1, 10 μM, CHO-K1 cells expressing KCNQ2/3, Table 3, read-out: Fluorimetry % Efficacy @ 10 μM (reti-gabine = 100%)
[6] = CHO-K1 cells expressing KCNQ2/3, Table 3

SMILES | Emax at 10 µM (hKCNQ2/3 [2]; [5]) | EC50 (hKCNQ2/3 [2]; [6]) | other results
O=C(CCC(=O)N1CCn2cccc2C1c1ccccc1)NCc1cccc(C(F)(F)F)c1 (stereo not drawn) [Example No. 2 of WO 2008/046582, reference compound] | – | – | Formalin test rat i.v. @ 10 mg/kg % reduction in noiceptive behavior [1]: no effect; Emax at 10 µM (hKCNQ2/3 [2]; [4]): 115%; EC50 (hKCNQ2/3 [2]; comparison experiments table): 2810 nM
O=C(CCC(=O)N1CCc2sccc2C1c1ccccc1)NCc1cccc(C(F)(F)F)c1 (stereo not drawn) [Illustrative compound 2, 4-oxo-4-(4-phenyl-6,7-dihydrothieno[3,2-c]pyridin-5(4H)-yl)-N-(3-(trifluoromethyl)benzyl)butanamide] | 165% | 758 nM | Formalin test rat i.v. @ 10 mg/kg % reduction in noiceptive behavior [1]: 56%; Formalin test rat i.v. % reduction in nociceptive behavior ([1]; dose 10.0 mg/kg): 56 (10.0) %; Emax at 10 µM (hKCNQ2/3 [2]; [4]): 145%; EC50 (hKCNQ2/3 [2]; comparison experiments table): 1440 nM; Emax at 10 µM (hKCNQ2/3 [3]): 106%
O=C(CCC(=O)N1CCc2sccc2C1c1cccs1)NCc1cccc(C(F)(F)F)c1 (stereo not drawn) [compound 1] | 168% | 1690 nM | Emax at 10 µM (hKCNQ2/3 [2]; [4]): 165%; EC50 (hKCNQ2/3 [2]; comparison experiments table): 760 nM; Emax at 10 µM (hKCNQ2/3 [3]): 97%
Cc1ccccc1C1c2ccsc2CCN1C(=O)CCC(=O)NCc1cccc(C(F)(F)F)c1 (stereo not drawn) [compound 8] | 148% | 79 nM | Formalin test rat i.v. % reduction in nociceptive behavior ([1]; dose 4.64 mg/kg): 11 (4.64) %
O=C(CCC(=O)N1CCc2sccc2C1c1ccccc1)NCc1ccccc1C(F)(F)F (stereo not drawn) [compound 17] | 74% | 62 nM | Formalin test rat i.v. % reduction in nociceptive behavior ([1]; dose 10.0 mg/kg): 15 (10.0) %
O=C(CCC(=O)N1CCc2sccc2C1C1CC1)NCc1cccc(C(F)(F)F)c1 (stereo not drawn) [compound 260] | – | 108 nM | Formalin test rat i.v. % reduction in nociceptive behavior ([1]; dose 4.64 mg/kg): 46 (4.64) %; Emax at 10 µM (hKCNQ2/3 [3]): 91%
O=C(CCC(=O)N1CCc2sccc2C1C1CCCC1)NCc1cccc(C(F)(F)F)c1 (stereo not drawn) [compound 263] | – | 160 nM | –
O=C(CCC(=O)N1CCc2sccc2C1CCCc1ccccc1)NCc1cccc(C(F)(F)F)c1 (stereo not drawn) [compound 265] | – | 596 nM | –
O=C(CCC(=O)N1CCc2sccc2C1c1ccccc1)N1CCc2ccc(C(F)(F)F)cc2C1 (stereo not drawn) [compound 269] | – | 519 nM | –
O=C(CCC(=O)N1CCc2sccc2C1c1ccccc1)N1CCc2c(cccc2C(F)(F)F)C1 (stereo not drawn) [compound 271] | – | 431 nM | –
Cc1ccccc1C1c2sccc2CCN1C(=O)CCC(=O)NCc1cccc(C(F)(F)F)c1 (stereo not drawn) [compound 274] | – | 323 nM | –
O=C(CCC(=O)N1CCc2ccsc2C1C1CCCCC1)NCc1cccc(C(F)(F)F)c1 (stereo not drawn) [compound 275] | – | 962 nM | –
